Measurements as given in PubChem BioAssay (NCI).
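The compound was tested at five concentrations on cells cultured in 96-well plates, with a 48-hour exposure period. The concentration for full growth arrest is given as TGI.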

How the values were obtained:
Assay in all cases: NCI tumour cell line growth inhibition, 48 h
[1] = system: 786-0 renal
[2] = system: A498 renal
[3] = system: A549 NSCLC
[4] = system: ACHN renal
[5] = system: BT-549 breast
[6] = system: CAKI-1 renal
[7] = system: CCRF-CEM leukemia
[8] = system: COLO 205 colon
[9] = system: DLD-1 colon
[10] = system: DMS 114 small cell lung
[11] = system: DMS 273 small cell lung
[12] = system: DU-145 prostate
[13] = system: EKVX NSCLC
[14] = system: HCC-2998 colon
[15] = system: HCT-116 colon
[16] = system: HCT-15 colon
[17] = system: HL-60(TB) leukemia
[18] = system: HOP-18 NSCLC
[19] = system: HOP-62 NSCLC
[20] = system: HOP-92 NSCLC
[21] = system: HS 578T breast
[22] = system: HT29 colon
[23] = system: IGROV1 ovarian
[24] = system: K-562 leukemia
[25] = system: KM12 colon
[26] = system: KM20L2 colon
[27] = system: LOX IMVI melanoma
[28] = system: M14 melanoma
[29] = system: M19-MEL melanoma
[30] = system: MALME-3M melanoma
[31] = system: MCF7 breast
[32] = system: MDA-MB-231 breast
[33] = system: MDA-MB-435
[34] = system: MDA-N
[35] = system: MOLT-4 leukemia
[36] = system: NCI-H226 lung
[37] = system: NCI-H23 lung
[38] = system: NCI-H460 lung
[39] = system: NCI-H522 lung
[40] = system: NCI/ADR-RES ovarian
[41] = system: OVCAR-3 ovarian
[42] = system: OVCAR-4 ovarian
[43] = system: OVCAR-5 ovarian
[44] = system: OVCAR-8 ovarian
[45] = system: P388 leukemia
[46] = system: P388/ADR leukemia
[47] = system: PC-3 prostate
[48] = system: RPMI-8226 leukemia
[49] = system: RXF 393 renal
[50] = system: SF-268 CNS
[51] = system: SF-295 CNS
[52] = system: SF-539 CNS
[53] = system: SK-MEL-2 melanoma
[54] = system: SK-MEL-28 melanoma
[55] = system: SK-MEL-5 melanoma
[56] = system: SK-OV-3 ovarian
[57] = system: SN12C renal
[58] = system: SN12K1 renal
[59] = system: SNB-19 CNS
[60] = system: SNB-75 CNS
[61] = system: SNB-78 CNS
[62] = system: SR leukemia
[63] = system: SW-620 colon
[64] = system: T-47D breast
[65] = system: TK-10 renal
[66] = system: U251 CNS
[67] = system: UACC-257 melanoma
[68] = system: UACC-62 melanoma
[69] = system: UO-31 renal
[70] = system: XF 498 CNS

`CCC1(c2ccc(N)cc2)CCC(=O)NC1=O` (stereo not given) showed a TGI [1] of over 5 mM, a TGI [2] of over 5 mM and a TGI [3] of over 5 mM. It also gave a TGI [4] of over 5 mM, a TGI [5] of over 5 mM and a TGI [6] of 4.31 mM. The TGI [7] was over 1.99 mM, the TGI [8] was 3.07 mM and the TGI [9] was over 5 mM. It also gave a TGI [10] of over 4.32 mM, a TGI [11] of over 5 mM and a TGI [12] of over 5 mM. For the same compound, the TGI [13] was over 5 mM, the TGI [14] was over 5 mM and the TGI [15] was over 5 mM. It also gave a TGI [16] of over 5 mM, a TGI [17] of 3.63 mM and a TGI [18] of over 4.91 mM. For the same compound, the TGI [19] was over 1.58 mM, the TGI [20] was 3.56 mM and the TGI [21] was over 5 mM. For the same compound, the TGI [22] was over 3.75 mM, the TGI [23] was over 4.85 mM and the TGI [24] was over 5 mM. For the same compound, the TGI [25] was over 3.87 mM, the TGI [26] was over 5 mM and the TGI [27] was over 3.97 mM. For the same compound, the TGI [28] was over 4.56 mM, the TGI [29] was over 4.74 mM and the TGI [30] was over 4.86 mM. The TGI [31] was over 5 mM, the TGI [32] was over 5 mM and the TGI [33] was over 5 mM. It also gave a TGI [34] of over 5 mM, a TGI [35] of over 3.75 mM and a TGI [36] of over 4.82 mM. For the same compound, the TGI [37] was over 5 mM, the TGI [38] was over 5 mM and the TGI [39] was 4.95 mM. For the same compound, the TGI [40] was 4.82 mM, the TGI [41] was over 3.97 mM and the TGI [42] was 4.94 mM. The TGI [43] was over 5 mM, the TGI [44] was over 5 mM and the TGI [45] was over 5 mM. It also gave a TGI [46] of over 2.81 mM, a TGI [47] of 4.55 mM and a TGI [48] of over 5 mM. It also gave a TGI [49] of over 3.97 mM, a TGI [50] of over 5 mM and a TGI [51] of over 3.87 mM. The TGI [52] was over 5 mM, the TGI [53] was over 5 mM and the TGI [54] was over 5 mM. It also gave a TGI [55] of 3.67 mM, a TGI [56] of 1.95 mM and a TGI [57] of over 5 mM. For the same compound, the TGI [58] was over 5 mM, the TGI [59] was over 5 mM and the TGI [60] was 4.49 mM. For the same compound, the TGI [61] was 4.97 mM, the TGI [62] was over 5 mM and the TGI [63] was over 3.97 mM. For the same compound, the TGI [64] was over 4.73 mM, the TGI [65] was 4.89 mM and the TGI [66] was over 4.06 mM. The TGI [67] was over 4.88 mM, the TGI [68] was over 4.51 mM and the TGI [69] was over 3.95 mM. It also gave a TGI [70] of 4.26 mM.
